Patent US8236985B2, “Compounds and uses thereof” (Imperial Innovations Ltd., priority 2006, dated 2012)
Read-outs that look alike come from different tables or passages of the source. Each block holds one compound with its values, some of them ahead of it.

Tests used:
[1] = tested on: HDAC; settings: background statement; cited from earlier work
[2] = Intraperitoneal pharmacokinetic studies in vivo; parameters: species or system mouse; settings: for Number of UV metabolites: 80 mg/kg i.p.
Method: Parent compound and phase I metabolites were separated by HPLC and detected with simultaneous UV and positive ion electrospray mass spectrometry. Metabolites were identified by positive ion electrospray tandem mass spectrometry.
C1-A was introduced at 80 mg/kg in DMSO (0.0015 ml/g; 30 μl) intraperitoneally into the mouse.

[3] = tested on: MCF-7 cells; assay: Sulforhodamine B (SRB) cell growth inhibition assay; type: cell-based, human; settings: N=5-6
Method: Stock cultures of MCF-7 and MDA-MB-231 human breast cancer cell lines (American Type Culture Collection, Rockville, Md.) are grown in Dulbecco's Modified Eagle's Medium (DMEM) containing 10% (v/v) foetal calf serum, 2 mM L-glutamine, 100 units/ml penicillin and 100 μg/ml streptomycin at 37° C. in 5% CO2 humidified atmosphere. Cells are counted in a haemocytometer after detachment using 0.25% (w/v) trypsin in Dulbecco's Phosphate Buffered Saline without Ca^2+ or Mg^2+ (DPBS) (Sigma-Aldrich, Gillingham, UK) containing 0.02% (w/v) EDTA. Viability is determined by Trypan blue exclusion. For each cell line, cells are seeded in 96-well microtitre plates at optimal densities determined in prior experiments to ensure exponential growth for the duration of the assay. […] After 48 hour incubation, cell proliferation is determined using the sulforhodamine B colorimetric assay described by Skehan et al. (1990) J. Natl. Cancer Inst. 82, 1107-1112. Briefly, 100 μl of ice cold 40% (w/v) trichloroacetic acid is added to each well and incubated for 1 hour at 4° C. The plate is then rinsed gently with five changes of tap water. To each well is then added 100 μl of 0.4% (w/v) sulforhodamine B in 1% (v/v) acetic acid and incubated for 1 hour at room temperature. The plate is then washed five times with 1% (v/v) acetic acid and allowed to air dry overnight. Bound dye is then solubilised by addition of 100 μl of 10 mM Tris base to each well followed by incubation on a vibrating plate shaker for 30 minutes. Absorbance at 492 nm is then measured on a microtitre plate reader and the results expressed as the mean ±SE for 6 replicates as a % of vehicle control (taken as 100%). The concentration of each compound of the invention that inhibits cell proliferation by 50% (IC50) is determined graphically in each case using non-linear regression analysis to fit inhibition data to the appropriate dose-response curve (GraphPad Prism Version 4.0; GraphPad Software Inc., San Diego, Calif.).
Trichostatin A (TSA) was used as control.

[4] = tested on: N-methyl-N-nitrosourea carcinogen-induced rat mammary cancer; settings: 500 μg/kg/day s.c. for 4 weeks; cited from earlier work
[5] = cited from earlier work
[6] = tested on: MCF7 and MDA-MB-435 human mammary tumour xenografts; assay: Human mammary tumour xenografts in immunodeficient mice; type: in vivo, mouse; settings: 20-40 mg/kg/day i.p. for 2 weeks
[7] = tested on: HDAC; settings: HPLC fractions tested in vitro; cited from earlier work
[8] = Pharmacokinetic studies in vivo after intravenous injection; parameters: species or system mouse; settings: 80 mg/kg i.v.
Method: C1-A at 80 mg/kg in 10% DMSO, 5% Tween 20 and 85% saline was injected i.v. into the mouse. Plasma samples were deproteinated with two volume equivalents of methanol, then 200 μl was analysed by reversed-phase high pressure liquid chromatography (5 μm C18 column and 10 mM ammonium acetate/acetonitrile gradient) with ultraviolet detection at a wavelength of 351 nm. C1-A was detectable in plasma up to 60 min after i.v. injection.

[9] = tested on: HCT116 human colon cancer cells; assay: Efficacy in vivo, HCT116 tumour-bearing mice; parameters: species or system mouse; settings: 80 mg/ml i.p. daily for 7 days, n=1; for Efficacy in vivo (tumour volume vs vehicle control): HCT116 s.c. tumours
Method: The study was carried out at n=1 each for drug- or vehicle-treated mice. HCT116 human colon cancer cells were injected subcutaneously into the back of mice to form tumours.
When the tumours were about ˜125 mm^3, the mice were injected with C1-A at 80 mg/ml or vehicle (10% DMSO, 5% Tween 20 and 85% saline) intraperitoneally daily for 7 days. Tumour sizes were measured every 1-2 days in 3 orthogonal axes by callipers to determine tumour volume.

[10] = tested on: Histone H4 acetylation, pRb and Cyclin D1 in MCF-7 cells; assay: Western blots of acetyl-H4, pRb and cyclin D1; type: cell-based, human; settings: MCF-7 cells treated 24 h; western blot (FIG. 13)
Method: MCF-7 cells were treated with drug or vehicle (equivalent concentration of DMSO in growth media) for 24 h. Cells were harvested and homogenised. The respective proteins (acetyl-H4, pRb and cyclin D1) in supernatants of these homogenates were visualised by western blot analysis as previously described (Leyton J. et al., Cancer Res. (2006) 66(15): 7621-9).

[11] = tested on: HDAC (HeLa nuclear extract); assay: Fluorometric HDAC inhibition assay using the Fluor de Lys assay kit; type: biochemical, human
Method: Histone deacetylase inhibition by compounds of the invention is assayed by a commercial fluorescent assay kit (BIOMOL—AK-500). 10 mM stock solutions of compounds of the invention prepared in DMSO are aliquoted and frozen at −20° C. For each assay, a vial of the drug solution is thawed to prepare dilutions of drug in DMSO; the remaining drug is discarded. Working solutions of the assay reagents are prepared according to the manufacturers instructions. For the assay, 10 μl of ×5 concentrations of drug (in triplicate) or HDAC assay buffer is added to 15 μl of dilute HeLa nuclear extract (BIOMOL; D1409) and 25 μl of (2×) Fluor-de-Lys substrate in a micro titre plate (Perkin Elmer # 6005270, Optiplate-96 Black microplate) and thoroughly mixed. […] The reactions are allowed to proceed for 10 min and then stopped by addition of 50 μl of dilute Fluor-de-Lys developer solution. The reaction mixtures are then incubated at room temperature for 15 min and fluorescence is read on a Victor multi-well Fluorescence plate reader at an excitation wavelength of 355 nm and emission wavelength of 460 nm.
To obtain a calibration curve, 50 μl aliquots of deacetylated standards prepared in HDAC assay buffer according to the manufacturer's instructions are mixed with 50 μl of diluted Fluor-de-Lys developer solution and incubated for 10 min at room temperature. The fluorescence is measured as above. A plot of arbitrary fluorescence units (AFU) against deacetylated standard concentration in μM is made. The slope and intercept are determined and used for conversion of inhibitor data AFU into velocity of reaction (V, μM/min). To obtain half-maximal inhibition (EC50), molar concentrations of drug are plotted against V and the EC50 is determined from the sigmoid dose response using the GraphPad Prism software.

[12] = MCF-7 cells, first of two independent assays
[13] = MCF-7 cells, second of two independent assays
[14] = first of two independent assay sets, N=3, read-out: Average EC50
[15] = second of two independent assay sets, N=3, read-out: Average EC50

Compound: CC(/C=C/C(=O)NO)=C\[C@@H](C)C(=O)c1ccc(N(C)C)cc1 [TSA, Trichostatin A]
Concentrations at which HDAC is inhibited [1]: low nanomolar
Number of UV metabolites ([2]; mice, at 20 minutes (FIG. 17 and Sanderson et al, 2004)): 17
Metabolism in vivo ([2]; FIG. 17): rapidly metabolised in vivo
EC50 [3, 12]: 75 nM
EC50 [3, 13]: 110 nM
Anti-tumour activity [4]: potent anti-tumour activity
Toxicity in vivo [4]: without significant toxicity
Number of UV metabolites ([5]; TSA, at 20 minutes (Sanderson et al, 2004), quoted in Example 10): 17
Parent drug remaining ([5]; TSA, at 20 minutes (Sanderson et al, 2004)): almost no parent drug
Cmax ([5]; plasma, 80 mg/kg i.p., mice): 40000 ng/mL
Half-life ([5]; plasma, 80 mg/kg i.p., mice): 6.3 min
Anti-tumour activity [6]: anti-tumour activity

Compound: CNc1ccc(C(=O)C(C)C=C(C)C=CC(=O)NO)cc1 (centres unmarked) [N-demethylated TSA metabolite, N-demethylated TSA]
HDAC inhibitory potency relative to TSA [7]: equipotent

Compound: (E,E)-4-methyl-5-{4-[4-bis-(2-chloroethylamino)phenyl]-sulfonamido}penta-2,4-dienoic acid N-hydroxyamide [Example C1-A]
Stability in vivo ([8]; Balb/c mice (FIG. 14)): stable in vivo
Detection in liver ([8]; mouse): detectable in the liver at all time points
Time up to which compound was detectable in plasma ([8]; mouse, HPLC-UV): up to 60 min
Toxicity based on measurement of body weight [9]: no toxicity was detectable
Efficacy in vivo (tumour volume vs vehicle control) [9]: Tumour volume was greater in the control than in the C1-A-treated mouse
Efficacy in vivo (tumour volume vs vehicle control) ([9]; listed as C1A): efficacious in vivo
Concentration at which pRb & cyclin D are inhibited and H4 hyperacetylation is induced, relative to TSA [10]: ≥ 10 × [TSA]
Stability in vivo ([2]; 80 mg/kg i.p. in DMSO, mouse, HPLC-UV (FIG. 16)): stable in vivo
Number of UV metabolites ([2]; mouse, at 60 minutes): 5
EC50 [3, 12]: 3900 nM
EC50 [3, 13]: 6800 nM
EC50 [11, 14]: 590 nM
EC50 [11, 15]: 310 nM

EC50 ([3]; Homo sapiens, MCF7, MCF-7 cells, first of two independent assays): 6000 nM
EC50 ([3]; Homo sapiens, MCF7, MCF-7 cells, second of two independent assays): 14000 nM
EC50 [11, 14]: 320 nM
EC50 [11, 15]: 450 nM
Compound: CCN(CC)c1ccc(S(=O)(=O)Nc2ccc(/C=C(C)/C=C/C(=O)NO)cc2)cc1 [Example C1-B, (E,E)-4-methyl-5-{4-[4-(diethylamino)phenyl]sulfonamido}penta-2,4-dienoic acid N-hydroxyamide]

Compound: Depudecin [reference compound]
Concentrations at which HDAC is inhibited [1]: micromolar
EC50 ([11]; control, read-out: EC50): > 10000 nM
